# Patent publication US7547713B2, “O-pyridinequinone derivatives, the composition containing the derivatives, the process for preparation of the derivatives and the use of the derivatives” (priority 2002, dated 2009)
# Entries after “also recorded” stand apart in the source; their conditions may differ. Where two headings read alike, the source gives them in different places.
# Legend:
# COX-2 = target: T1, COX-2 (Homo sapiens, UniProt P35354); test: Inhibition of COX-2 in COLO 205 cell line (Prostaglandin E2 EIA); assay type: cell-based
# T1 construct: host or cells: COLO 205
# T1 sequence (P35354 18-604): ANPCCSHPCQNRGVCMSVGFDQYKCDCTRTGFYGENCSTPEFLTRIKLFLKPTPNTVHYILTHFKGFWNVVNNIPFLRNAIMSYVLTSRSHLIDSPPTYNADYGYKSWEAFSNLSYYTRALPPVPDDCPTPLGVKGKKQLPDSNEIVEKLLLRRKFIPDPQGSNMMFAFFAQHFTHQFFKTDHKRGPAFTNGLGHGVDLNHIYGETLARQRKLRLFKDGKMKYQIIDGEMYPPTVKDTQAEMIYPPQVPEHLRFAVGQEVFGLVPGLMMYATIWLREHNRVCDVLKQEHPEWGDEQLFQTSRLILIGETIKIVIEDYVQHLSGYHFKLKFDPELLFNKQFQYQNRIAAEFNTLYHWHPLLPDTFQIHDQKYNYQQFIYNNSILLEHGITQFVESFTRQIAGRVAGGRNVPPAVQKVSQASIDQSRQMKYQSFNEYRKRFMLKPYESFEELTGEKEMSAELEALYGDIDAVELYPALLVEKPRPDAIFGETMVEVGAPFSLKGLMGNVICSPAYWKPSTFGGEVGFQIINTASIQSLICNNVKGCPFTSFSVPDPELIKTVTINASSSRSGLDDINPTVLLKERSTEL
# Excerpt: Enzyme-Linked ImmunoSorbent Assay Kit (Prostaglandins E2 (PEG2) EIA Kit-Monoclonal, Cayman Chemical company (U.S.A)).
# [1] = system: mouse model of auricle swelling; test: Mouse model of auricle swelling (xylene); assay type: in vivo; details: xylene after 60 min, killed 4 hours later
# Protocol: Forty healthy male mice were divided randomly into 4 groups, 10 mice per group, namely, the blank control group, the 5,6-di(m-acetylphenylamino)-2,3-pyridindione group, the 5,6-di(m-carboxylphenylamino)-2,3-pyridindione group, and the aspirin group as the drug control group. The compounds with dosage listed in Table 2 were administered orally to the […], respectively. After 60 min 0.05 ml xylene (analytical grade) was applied on the right ear of each mouse, respectively. The mice were killed 4 hours later, a disk of ear tissue was removed from the same location of both ears using a 5.5-mm biopsy punch, then each of the ear disks was weighed, and the rates of auricle swelling inhibition were calculated, as listed in Table 2.
# [2] = system: mouse skin capillary permeability; test: Increment of the mouse skin capillary permeability (xylene, Evans blue); assay type: in vivo; details: OD at 590 nm, blank control 0.442 ± 0.240, lower is better
# Excerpt: One hundred and seventy healthy male mice were divided randomly into 17 groups, 10 mice per group, namely, the blank control group, the high, medium, and low dosage groups of 5,6-di(m-acetylphenylamino)-2,3-pyridindione, respectively, the high, medium, and low dosage groups of 5,6-di(m-carboxylphenylamino)-2,3-pyridindione, respectively, the high, medium, and low dosage groups of 5,6-di(p-carboxylphenylamino)-2,3-pyridindione, respectively, the high, medium, and low dosage groups of 5,6-di(p-chlorophenylamino)-2,3-pyridindione, respectively, the high, medium, and low dosage groups of 5,6-di(p-tolylamino)-2,3-pyridindione, and the aspirin group as the positive control group. The mice were administered via gastro infusion according to the Table 5, and 1 hour later, 0.5%. Evans blue saline was injected into the mice via tail vain at 0.1 ml/10 g, then xylene with a dosage of 0.03 ml/mouse was applied to the mice in the shaved area at the middle belly. The mice were killed by cervical dislocation 20 min later, and their belly skin was peeled off, where the blue area was removed by using a biopsy punch, broken up by using surgery scissors, and put into covered glass tubes. Seven milliliters of acetone/water (7:3, v/v) solution was added into each tube, which was then stored in the dark and was gently shaken up 2-3 times daily. After 3 days, the solution in each tube was centrifuged at 2000 rpm for 10 min, and the supernatant was measured for optical density at 590 nm with the absorption of acetone/water (7:3, v/v) solution as the baseline. The lower the OD value, the better the anti-inflammatory effect.
# COX-1 = COX-1 (Homo sapiens, UniProt P23219); test: Inhibition of COX-1 (TMPD/arachidonic acid, absorption at 611 nm); assay type: biochemical
# Protocol: Methods: 4 μl of COX-1 was added to 960 μl 0.1 M Tris-HCl in a cell. The mixture was equilibrated for 30s, and then added with 1 μl inhibitor. After 2 min, 15 μl TMPD and 15 μl A.A. were immediately added to the mixture and mixed well. After 7 min, the absorption was measured at 611 nm.
# [3] = system: rat model of toe swelling; test: Rat model of toe swelling (3% formaldehyde); assay type: in vivo; details: toe volume 2 hours after injection
# Protocol: Forty healthy male rats were divided randomly into 4 groups, 10 rats per group, namely, the blank control group, the 5,6-di(m-acetylphenylamino)-2,3-pyridindione group, the 5,6-di(m-carboxylphenylamino)-2,3-pyridindione group, and the aspirin group as the drug control group. 0.1 ml of inflammation inducer (3% formaldehyde) was subcutaneously injected into the right toe of the hind leg of each rat. After 24 hours, the compounds with dosage listed in Table 1 were injected into the rats, respectively. The volume of the toes was measured 2 hours later after injection by using the Water Volume Method described in the Methodology of Pharmacology Experiments, 2nd edition, Shu-yun Xu, etc., People's Medical Publishing House, Beijing, 1991.
# [4] = system: animal model of anti-histamine; test: Animal model of anti-histamine (Evans blue, dyed back skin); assay type: in vivo; details: rat; for Inhibition rate (%): histamine s.c., Evans blue; for Absorbency(A): blank control 0.099
# Protocol: Forty healthy male rats were divided randomly into 4 groups, […], namely, the blank control group, the 5,6-di(m-acetylphenylamino)-2,3-pyridindione group, the 5,6-di(m-carboxylphenylamino)-2,3-pyridindione group, and the aspirin group as the positive control group. The compounds with dosage listed in Table 3 were administered orally to the rats, respectively, then 0.1 ml of […] was administered subcutaneously, and then 1 ml of 1% Evans blue was immediately injected intravenously under the tongue.
# mice = details: mouse, in vivo; for Death rate: both, 7 days
# Protocol: Toxicological test of 5,6-di(m-acetylphenylamino)-2,3-pyridindione Single dose administration was used. 5,6-di(m-acetylphenylamino)-2,3-pyridindione was prepared to the required concentration with the presence of 0.5% DMSO. Sixty healthy male mice and 60 healthy female mice were divided randomly into 10 mice per group, 12 groups, among which 5 groups were administered by tail vein injection, and 5 groups were administered via gastro infusion, and the other two groups were used as negative controls. The activities and death of mice were observed and recorded for 7 days after the administration of the compound.
# [5] = gastro infusion 1.0 mg/kg (low dosage)
# [6] = gastro infusion 3.2 mg/kg (medium dosage)
# [7] = gastro infusion 6.5 mg/kg (high dosage)
# [8] = 5 mg/kg injected 24 h after formaldehyde
# Sequence of COX-1 (P23219 24-599): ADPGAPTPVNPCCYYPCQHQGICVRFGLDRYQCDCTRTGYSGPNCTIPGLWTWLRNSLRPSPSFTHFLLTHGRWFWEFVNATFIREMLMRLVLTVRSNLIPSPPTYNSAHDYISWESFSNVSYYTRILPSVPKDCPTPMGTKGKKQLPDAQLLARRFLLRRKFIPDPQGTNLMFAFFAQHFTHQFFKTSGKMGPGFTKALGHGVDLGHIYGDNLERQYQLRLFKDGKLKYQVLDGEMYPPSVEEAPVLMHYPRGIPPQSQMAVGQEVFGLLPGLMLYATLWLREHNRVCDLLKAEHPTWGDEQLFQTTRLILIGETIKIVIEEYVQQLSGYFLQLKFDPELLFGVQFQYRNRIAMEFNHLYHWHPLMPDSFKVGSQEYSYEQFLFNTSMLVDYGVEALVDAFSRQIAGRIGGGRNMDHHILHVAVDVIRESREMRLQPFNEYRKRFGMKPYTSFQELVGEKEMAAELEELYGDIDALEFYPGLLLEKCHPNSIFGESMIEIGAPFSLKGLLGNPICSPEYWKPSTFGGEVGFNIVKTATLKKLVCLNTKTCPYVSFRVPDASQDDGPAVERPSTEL
Structure (SMILES),Inhibition rate (%) of auricle swelling ([1]; 30 mg/kg orally),"OD (A) [2, 5]","OD (A) [2, 6]","OD (A) [2, 7]","Inhibition rate (%) of toe swelling [3, 8]",Inhibition rate (%) ([4]; 10 mg/kg orally),Absorbency(A) ([4]; 10 mg/kg orally),further results
"CC(=O)c1cccc(NC2=CC(=O)C(=O)N=C2Nc2cccc(C(C)=O)c2)c1 [5,6-di(m-acetylphenylamino)-2,3-pyridindione]",83.2%,0.241 ± 0.121 A,0.035 ± 0.049 A,0.019 ± 0.018 A,62.5%,19%,0.081 A,"inhibition of the activity of COX-2 (COX-2; COLO 205 cell line, PGE2 EIA, FIG. 2): higher inhibition effects on COX-2 than the former two; inhibition of the growth of the COLO205 cells ex vivo (COX-2; FIG. 2 legend): inhibits the growth of the COLO205 cells ex vivo; inhibition effect on COX-1 (COX-1; 1 μl of 10 mM inhibitor in dimethylsulfoxide, compared with control group without inhibitors, FIG. 1): no obvious inhibition effects; also recorded: almost no inhibition effect; Death rate (mice; 720 mg/kg): 0; Death rate (mice; 1030 mg/kg): 0; Death rate (mice; 1470 mg/kg): 0; Death rate (mice; 2100 mg/kg): 0; Death rate (mice; 3000 mg/kg): 0; death of the animals (mice): No death of the animals was observed; toxic reaction in aspect of activity, reactivity, back hair, dejecta (mice): normal; Toxic reaction (mice; 720 mg/kg): normal; Toxic reaction (mice; 1030 mg/kg): normal; Toxic reaction (mice; 1470 mg/kg): normal; Toxic reaction (mice; 2100 mg/kg): normal; Toxic reaction (mice; 3000 mg/kg): normal"
"O=C1C=C(Nc2cccc(C(=O)O)c2)C(Nc2cccc(C(=O)O)c2)=NC1=O [5,6-di(m-carboxylphenylamino)-2,3-pyridindione]",65.5%,0.038 ± 0.026 A,0.030 ± 0.010 A,0.036 ± 0.011 A,45.5%,16%,0.084 A,
"O=C1C=C(Nc2ccc(C(=O)O)cc2)C(Nc2ccc(C(=O)O)cc2)=NC1=O [5,6-di(p-carboxylphenylamino)-2,3-pyridindione]",,0.089 ± 0.054 A,0.043 ± 0.023 A,0.030 ± 0.012 A,,,,
"O=C1C=C(Nc2ccc(Cl)cc2)C(Nc2ccc(Cl)cc2)=NC1=O [5,6-di(p-chlorophenylamino)-2,3-pyridindione]",,0.142 ± 0.098 A,0.035 ± 0.026 A,0.015 ± 0.015 A,,,,
"Cc1ccc(NC2=CC(=O)C(=O)N=C2Nc2ccc(C)cc2)cc1 [5,6-di(p-tolylamino)-2,3-pyridindione]",,0.049 ± 0.049 A,0.011 ± 0.022 A,0.051 ± 0.042 A,,,,
"CC(=O)Oc1ccccc1C(=O)O [Aspirin, reference compound]",,,,,,,,Inhibition rate (%) of auricle swelling ([1]; 100 mg/kg orally): 30.1%; inhibition effect on COX-1 (COX-1): inhibited; Inhibition rate (%) of toe swelling ([3]; 50 mg/kg injected 24 h after formaldehyde): 10.1%; Inhibition rate (%) ([4]; 160 mg/kg orally): 13%; Absorbency(A) ([4]; 160 mg/kg orally): 0.086 A
